Results taken from paper PMC6270338, “Diterpenylquinone Hybrids: Synthesis and Assessment of Gastroprotective Mechanisms of Action in Human Cells” (Molecules, 2013).

Tests used:
AGS cells [1] = assay: Cellular reduced glutathione (GSH) content of AGS cells; type: cell-based, human; conditions: 4 h; for GSH: post-confluent AGS, control 13.6 ± 0.7
Description: Untreated cells were used as controls. […] After incubation, the GSH content was determined using a colorimetric kit (BioAssays Systems, Hayward, CA, USA). Results are expressed as nanomol of soluble reduced sulfhydryls/10^6 cells.

[2] = system: human erythrocyte membranes; assay: Inhibition of lipoperoxidation in erythrocyte membranes; type: biochemical
[3] = Cytotoxicity, neutral red uptake assay, AGS; type: cell-based; conditions: human, AGS gastric epithelial cells, confluent monolayer, read-out: IC50 ± SD, cytotoxicity AGS
Description: (§1) Human lung fibroblasts MRC-5 (ATCC CCL-171) were grown in minimum essential Eagle medium (MEM) with Earles’s salts and 2 mM L-glutamine (Sigma-Aldrich Co.). Human epithelial gastric cells AGS (ATCC CRL-1739) were grown in Ham F-12 medium containing 1 mM L-glutamine. Both media were supplemented with 1.5 g/L sodium bicarbonate (Sigma-Aldrich Co.), 10% heat-inactivated fetal bovine serum (FBS), 100 IU/mL penicillin and 100 µg/mL streptomycin.Both cell lines were grown as monolayers in a humidified incubator with 5% CO2 in air at 37 °C. Culture media, antibiotics and FBS were obtained from Invitrogen Corp.
(§2) Cytotoxicity values were required as a reference to determine the working concentrations in the subsequent experiments. Briefly, confluent cultures of MRC-5 and AGS cells were treated during 24 h with medium containing the compounds at concentrations ranging from 0 up to 1,000 µM. The products were first dissolved in DMSO (1% final concentration) and then in the corresponding culture medium supplemented with 2% FBS. Untreated cells were used as controls. Cell viability was determined at the end of the incubation by means of the neutral red uptake (NRU) assay. Lansoprazole (Sigma-Aldrich Co., min. 98% by TLC) was used as reference compound.

[4] = system: HCl-EtOH-induced gastric lesions; design: method as in PMID 21996716; conditions: mice, orally, single dose of 5 mg/kg; cited from earlier work
AGS cells [5] = assay: Prostaglandin E2 (PGE2) content of AGS cells; type: cell-based, human; conditions: 1 h; for PGE2: post-confluent AGS, control 52 ± 5
Description: One day after confluence, AGS cells were treated for 1 h with the compounds at 1/2 and 1/4 of the respective IC50 values. A control with medium only was included. Indomethacin (100 μM) was used as standard inhibitor of prostaglandin synthesis (Sigma-Aldrich Co., min. 99% by TLC). After incubation, PGE2 content was determined by means of a specific enzyme immunoassay kit (R & D Systems KGE004B, Minneapolis, MN, USA) and values were calculated according to the manufacturer instructions. Results are expressed as pg/well.

[6] = Cytotoxicity, neutral red uptake assay, MRC-5; type: cell-based; conditions: human, MRC-5 lung fibroblasts, confluent monolayer, confluent MRC-5, 24 h, read-out: IC50 ± SD, cytotoxicity MRC-5
Description: as §1, §2

[7] = system: human erythrocyte membranes; assay: Inhibition of lipoperoxidation in erythrocyte membranes; type: biochemical; conditions: at 100 µg/mL
Description: The inhibition of lipid peroxidation was determined using human erythrocyte membranes. The compounds were tested at 100 µg/mL.

With `C=C1CCC2[C@](C)(CCC[C@]2(C)C(=O)O)[C@H]1CC[C@@H](C)CC(=O)OC1=C(CCC(C)C)C(=O)c2ccccc2C1=O` (stereo partly drawn) [Compound 9, Dihydroprenyl lapachol junicedrate] the activation at 6 µM (AGS cells [1]; Homo sapiens, AGS, 6 µM, read-out: increase of GSH content compared to untreated controls) was 15%, the activation at 12 µM (AGS cells [1]; Homo sapiens, AGS, 12 µM, read-out: increase of GSH content compared to untreated controls) was 16% and the GSH (AGS cells [1]; 6 µM) was “* 15.6 ± 0.6 nmol/10^6 cells”. For the same molecule, the GSH (AGS cells [1]; 12 µM) was “* 15.8 ± 0.6 nmol/10^6 cells”, the “IC50, inhibition of the lipoperoxidation” value [2] was “IC50 40.1 ± 5.3 µg/mL” and the IC50 at 24 h [3] was 49 ± 10 µM. For the same molecule, the “gastroprotective effect in vivo” value [4] was “significant activity”, the fold induction at 12.5 µM (AGS cells [5]; Homo sapiens, AGS, 12.5 µM, read-out: increase in PGE2 content) was 5.9 and the PGE2 (AGS cells [5]; 12.5 µM) was 309 ± 29 pg/mL. For the same molecule, the IC50 at 24 h [6] was 449 ± 27 µM.

With `COC(=O)[C@@]1(C)CCC[C@]2(C)C(CC[C@@H](C)CC(=O)OC3=C(CC=C(C)C)C(=O)c4ccccc4C3=O)=C(C)CCC12` (stereo partly drawn) [Compound 20, Lapachoyl Δ8(9) junicedrate methyl ester] the activation at 40 µM (AGS cells [1]; Homo sapiens, AGS, 40 µM, read-out: increase of GSH content compared to untreated controls) was 19%, the activation at 80 µM (AGS cells [1]; Homo sapiens, AGS, 80 µM, read-out: increase of GSH content compared to untreated controls) was 13% and the GSH (AGS cells [1]; 40 µM) was “* 16.2 ± 1.0 nmol/10^6 cells”. For the same molecule, the GSH (AGS cells [1]; 80 µM) was “* 15.4 ± 1.3 nmol/10^6 cells”, the “IC50, inhibition of the lipoperoxidation” value [2] was “IC50 58.1 ± 4.1 µg/mL” and the IC50 at 24 h [3] was 321 ± 24 µM. The “gastroprotective effect in vivo” value [4] was “active” and the IC50 at 24 h [6] was 483 ± 31 µM.

With `C=C1CCC2[C@](C)(CCC[C@]2(C)C(=O)OC)[C@H]1CC[C@@H](C)CC(=O)OC1=C(CC=C(C)C)C(=O)c2ccccc2C1=O` (stereo partly drawn) [Compound 8, Lapachoyl junicedrate methyl ester] the activation at 125 µM (AGS cells [1]; Homo sapiens, AGS, 125 µM, read-out: increase of GSH content compared to untreated controls) was 19%, the activation at 250 µM (AGS cells [1]; Homo sapiens, AGS, 250 µM, read-out: increase of GSH content compared to untreated controls) was 24% and the GSH (AGS cells [1]; 125 µM) was “* 16.2 ± 0.6 nmol/10^6 cells”. For the same molecule, the GSH (AGS cells [1]; 250 µM) was “* 16.8 ± 0.9 nmol/10^6 cells”, the “IC50, inhibition of the lipoperoxidation” value [2] was “IC50 81.4 ± 11.0 µg/mL” and the IC50 at 24 h [3] was greater than 1000 µM. For the same molecule, the “gastroprotective effect in vivo” value [4] was “active”, the fold induction at 250 µM (AGS cells [5]; Homo sapiens, AGS, 250 µM, read-out: increase in PGE2 content) was 5.2 and the fold induction at 500 µM (AGS cells [5]; Homo sapiens, AGS, 500 µM, read-out: increase in PGE2 content) was 15.2. For the same molecule, the PGE2 (AGS cells [5]; 250 µM) was 272 ± 30 pg/mL, the PGE2 (AGS cells [5]; 500 µM) was 787 ± 56 pg/mL and the IC50 at 24 h [6] was greater than 1000 µM.

For `COC(=O)[C@@]1(C)CCC[C@]2(C)C(CC[C@@H](C)CC(=O)OC3=C(CCC(C)C)C(=O)c4ccccc4C3=O)=C(C)CCC12` (stereo partly drawn) [Compound 22, Dihydroprenyl lapachoyl Δ8(9) junicedrate methyl ester], the GSH (AGS cells [1]; 43 µM) was 13.6 ± 0.9 nmol/10^6 cells, the GSH (AGS cells [1]; 85 µM) was 14.2 ± 0.6 nmol/10^6 cells and the “% Inhibition of the lipoperoxidation” value [7] was 46%. The IC50 at 24 h [3] was 340 ± 20 µM, the “gastroprotective effect in vivo” value [4] was “significant activity” and the fold induction at 170 µM (AGS cells [5]; Homo sapiens, AGS, 170 µM, read-out: increase in PGE2 content) was 2.2. The PGE2 (AGS cells [5]; 170 µM) was 114 ± 11 pg/mL and the IC50 at 24 h [6] was 848 ± 51 µM.

For `C=C1CCC2[C@](C)(CCC[C@]2(C)C(=O)OC)[C@H]1CC[C@@H](C)CC(=O)OC1=C(CCC(C)C)C(=O)c2ccccc2C1=O` (stereo partly drawn) [Compound 10, Dihydroprenyl lapachoyl junicedrate methyl ester], the GSH (AGS cells [1]; 83 µM) was 13.4 ± 0.7 nmol/10^6 cells, the GSH (AGS cells [1]; 165 µM) was 13.0 ± 0.7 nmol/10^6 cells and the “IC50, inhibition of the lipoperoxidation” value [2] was “IC50 99.4 ± 9.1 µg/mL”. For the same molecule, the IC50 at 24 h [3] was 659 ± 42 µM, the “gastroprotective effect in vivo” value [4] was “significant activity” and the fold induction at 162 µM (AGS cells [5]; Homo sapiens, AGS, 162 µM, read-out: increase in PGE2 content) was 5.9. The fold induction at 323 µM (AGS cells [5]; Homo sapiens, AGS, 323 µM, read-out: increase in PGE2 content) was 8.9, the PGE2 (AGS cells [5]; 162 µM) was 306 ± 32 pg/mL and the PGE2 (AGS cells [5]; 323 µM) was 465 ± 39 pg/mL. It also gave an IC50 at 24 h [6] greater than 1000 µM.
